Laboratory results from patent publication US20180333371A1, “CURCUMIN AND RESVERATROL FOR CHRONIC INFLAMMATION” (DSM IP Assets B.V., priority 2015, published 2018).

Legend:
Format in all cases: cell-based, Sprague Dawley rat
[1] = system: TNF-α release by primary microglia; experiment: LPS-stimulated TNF-α release by primary microglia (multiplex ELISA); conditions: 0-250 μM, FIG. 2B
Description: (§1) Microglial Harvesting and Culture. All experiments involving animals were approved by the Animal Care and Use Committee established at Bolder Biopath, Inc. (Boulder, Colo.). Primary microglial cultures were derived from neocortical tissue of E22 Sprague Dawley rat pups taken from timed-pregnant dams (Charles River) by Caesarean section. Briefly, the pup brain cortices were isolated in Hibernate EB (Brain Bits; Springfield, Ill.). The samples were then transferred to Hibernate E (without Ca; Brain Bits; Springfield, Ill.) and washed twice with fresh Hibernate E (−Ca). The tissue was next digested in Hibernate E (−Ca) containing 0.5% trypsin (Sigma) for 15 min at 37° C.). […]
(§2) The tissue was triturated into single cells, and the suspension was filtered through a 70-μm cell strainer. Cell numbers and viability were consistently greater than 95% as determined using trypan blue (0.4%; Fisher Scientific) and a Countess automated cell counter (Life Technologies, Grand Island, N.Y.). […]
(§3) Cell Stimulation and Cytokine Assays. […] The concentration of prostaglandin E2 (PGE2) in the supernatant was measured by ELISA (Cayman Chemical). The concentrations of tumor necrosis factor-α (TNF-α), interleukin-1β (IL-1β) and interleukin-6 (IL-6) in the supernatant were determined by multiplex ELISA (Quansys Biosciences; Logan, Utah). […]

[2] = system: IL-1β release by primary microglia; experiment: LPS-stimulated IL-1β release by primary microglia (multiplex ELISA); conditions: 0-250 μM, FIG. 2C
Description: as §1, §2, §3

[3] = system: PGE2 release from primary microglia; experiment: LPS-stimulated PGE2 release by primary microglia (ELISA); conditions: for effect on PGE2 release: FIG. 2A
Description: Microglial Harvesting and Culture. All experiments involving animals were approved by the Animal Care and Use Committee established at Bolder Biopath, Inc. (Boulder, Colo.). Primary microglial cultures were derived from neocortical tissue of E22 Sprague Dawley rat pups taken from timed-pregnant dams (Charles River) by Caesarean section. Briefly, the pup brain cortices were isolated in Hibernate EB (Brain Bits; Springfield, Ill.). The samples were then transferred to Hibernate E (without Ca; Brain Bits; Springfield, Ill.) and washed twice with fresh Hibernate E (−Ca). The tissue was next digested in Hibernate E (−Ca) containing 0.5% trypsin (Sigma) for 15 min at 37° C.). The overlying solution was removed, and the trypsin reaction was quenched by washing the settled tissue with Hibernated E (—Ca) containing 20% heat-inactivated fetal bovine serum (FBS; Hyclone).
The tissue was triturated into single cells, and the suspension was filtered through a 70-μm cell strainer. Cell numbers and viability were consistently greater than 95% as determined using trypan blue (0.4%; Fisher Scientific) and a Countess automated cell counter (Life Technologies, Grand Island, N.Y.). Cells were seeded into T-75 flasks (VWR) at 8×10^6 cells/flask in HiGlutaXL Dulbecco's Modified Eagle Medium (DMEM, 4.5 g/L glucose, plus glutamine; HyClone) containing 100 μg/mL penicillin, 100 μg/mL streptomycin, 0.5 ng/mL amphotericin (CellnTec) and 1 mM sodium pyruvate. The media was changed on day 3 in vitro, and the cells were fed every 4-5 days while in the flasks. At day 14 in vitro, mouse granulocyte macrophage colony stimulating factor (mGM-CSF; R&D Systems; Minneapolis, Minn.) was added at a final concentration of 5 ng/mL to stimulate microglial differentiation.
as §3

[4] = system: PGE2 release from primary microglia; experiment: Synergism analysis (median-effect principle, combination index, ComboSyn) of PGE2 release inhibition

In the case of `Oc1ccc(C=Cc2cc(O)cc(O)c2)cc1` [Resveratrol, resveratrol], the “significant effects on TNF-α release” value [1] is reported as “not detected”, the “significant effects on IL-1β release” value [2] is reported as “not detected” and the “effect on PGE2 release” value ([3]; 75 μM) is reported as “significantly inhibited”. The “effect on PGE2 release” value ([3]; 250 μM) was “significantly inhibited”, the IC50 ([3]; Rattus norvegicus, FIG. 3) was 2250 nM and the “Dose reduction index (DRI)” value ([4]; in combination resveratrol 2.25 μM + curcumin C3 7 nM, FIG. 4) was 42.76. For the same molecule, the “decrease in concentration that would still have a synergistic effect in combination” value ([4]; relative to 2.25 μM resveratrol / 7 nM curcumin C3) was 43%.
